For 34 compounds, LogP and chromatographic logP results are on record in US20200031778A1, “NOVEL 5-SUBSTITUTED IMIDAZOLYLMETHYL DERIVATIVES” (Bayer CropScience Aktiengesellschaft, priority 2016, published 2020).

A short description of the series: Log P by HPLC on reversed phase columns (EEC directive 79/831 Annex V.A8; methods [a], [b], [c]). The following applies: for chromatographic logP: reversed phase HPLC column, method [a]: LC-UV, acidic range, 0.1% formic acid in water and acetonitrile as eluent (linear gradient from 10% to 95% acetonitrile). The format is physicochemical. The procedure, abridged:
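Log P derived from retention times, interpolated linearly between bracketing straight-chain alkan-2-ones (3–16 carbons) of known Log P. Eluents ran acetonitrile 10% to 95% against water with 0.1% formic acid ([a], acidic), 0.001 M ammonium acetate ([b], neutral) or 0.1% phosphoric acid ([c], acidic); UV read-out.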

SMILES strings stand for the structures.

As to `N#Cc1cncn1CC(O)(c1ccc(Cl)c(Br)c1)C1(F)CC1` (stereo not shown) [I-538], the LogP was 2.71^[a].

As for `N#Cc1cncn1CC(O)(c1cc(F)c(Cl)cc1Cl)C1(Cl)CC1` (stereo not shown) [I-585], the LogP was 2.75^[a]. For the compound `CCCC(O)(Cn1cncc1C#N)c1ccc(Cl)cc1Cl` (stereo not shown) [I-292], the LogP was 3.14^[a]. The term chromatographic logP denotes lipophilicity estimated from chromatographic retention. `N#Cc1cncn1CC(=O)c1cccc(Cl)c1F` [IX-148] showed a chromatographic logP of 2.02.

As for `CC(C)(C)C(O)(Cn1cncc1C#N)c1ccc(F)cc1` (stereo not shown) [I-347], the LogP is 2.51^[a].

Consider `CCC(C)C(O)(Cn1cncc1C#N)c1ccc(Cl)cc1` (single isomer, unassigned) [I-325], for which the LogP is 2.73^[a].

For `N#Cc1cncn1CC(O)c1ccc(C(F)(F)F)cc1` (stereo not shown) [I-141], the LogP is 1.90^[a]. For the compound `N#Cc1cncn1CC(=O)c1ccc(Cl)cc1F` [IX-147], the chromatographic logP turned out to be 1.94. Take `N#Cc1cncn1CC(O)(c1cccc(Cl)c1Cl)C1(Cl)CC1` (stereo not shown) [I-337]: the LogP was 2.52^[a]. `CC(O)(Cn1cncc1C(F)(F)F)c1ccc(Oc2ccc(I)cc2)cc1F` (stereo not shown) [I-179]: the LogP was 4.11^[a]. Turning to `CCCCC(O)(Cn1cncc1C#N)c1ccccc1Cl` (stereo not shown) [I-282], the LogP was 2.80^[a].

With `CC(O)(Cn1cncc1Br)c1ccc(Oc2ccc(Cl)cc2)cc1` (stereo not shown) [I-165], the LogP was 2.30^[a].

As for `CC(C)(C)CC(O)(Cn1cncc1C#N)C1(F)CC1` (stereo not shown) [I-374], the LogP is 2.44^[a].

Consider `N#Cc1cncn1CC(O)c1cnc(Oc2ccc(Cl)cc2F)cc1C(F)(F)F` (stereo not shown) [I-114], for which the LogP is 3.13^[a]. `O=C(Cn1cncc1Br)c1ccc(F)cc1F` [IX-121] registered a chromatographic logP of 1.32.

For `CC(O)(Cn1cncc1F)c1cnc(Oc2ccc(Br)cc2)cc1C(F)(F)F` (single isomer, unassigned) [I-220], the LogP was 2.37^[a]. In the case of `CC(O)(Cn1cncc1F)c1ccc(Oc2ccc(C(F)F)cc2)nc1C(F)(F)F` (stereo not shown) [I-295], the LogP is 2.15^[a]. In the case of `N#Cc1cncn1CC(O)(CC1CC1)c1ccc(Cl)c(F)c1` (stereo not shown) [I-486], the LogP was 2.56^[a].

`N#Cc1cncn1CC(O)(c1c(F)cc(Cl)cc1F)C1(F)CC1` (stereo not shown) [I-519]: the LogP was 2.36^[a]. On to `N#Cc1cncn1CC(O)(c1ccc(F)c(Cl)c1)C1(F)CC1` (stereo not shown) [I-444], for which the LogP is 2.39^[a].

`CC(O)(Cn1cncc1C#N)c1cnc(Oc2ccc(Br)cc2)cc1C(F)F` (stereo not shown) [I-258]: the LogP is 2.68^[a]. As to `CCCC(C)C(O)(Cn1cncc1C#N)c1ccc(Cl)cc1` (single isomer, unassigned) [I-327], the LogP is 3.08^[a]. For `N#Cc1cncn1CC(O)(c1ccc(Oc2ccccc2)cc1)C1(Cl)CC1` (stereo not shown) [I-281], the LogP was 3.19^[a]. `CC(O)(Cn1cncc1Br)c1ccc(Oc2ccc(Br)cc2)cc1Cl` (stereo not shown) [1-174]: the LogP was 2.96^[a]. Take `N#Cc1cncn1CC(O)c1ccc(F)cc1` (stereo not shown) [I-117]: the LogP is 1.37^[a]. On to `CC(C)(C)C(O)(Cn1cncc1C#N)c1cc(F)c(F)c(Cl)c1` (stereo not shown) [I-544], for which the LogP was 3.07^[a]. In the case of `Cc1ccc(C(C)(O)Cn2cncc2C#N)cc1` (stereo not shown) [I-340], the LogP is 1.75^[a]. Same read-out and setting: the same measure for `N#Cc1cncn1CC(O)(CC1CC1)c1cc(Cl)c(F)c(Cl)c1` (stereo not shown) [I-493]: 2.95^[a]. Take `CC1(C(O)(Cn2cncc2C#N)c2ccc(F)cc2)CC1` (stereo not shown) [I-450]: the LogP was 2.19^[a]. Consider `COc1ccc(C#CC(O)(Cn2cncc2C#N)C2(Cl)CC2)cc1` (stereo not shown) [I-321], for which the LogP is 2.51^[a].

As to `N#Cc1cncn1CC(O)(CCCC(Cl)CCl)C1(F)CC1` (stereo not shown) [I-678], the LogP is 2.54'^[a]. Consider `N#Cc1cncn1CC(O)(c1ccc(Br)cc1Cl)C1(Cl)CC1` (stereo not shown) [I-648], for which the LogP is 2.70^[a]. For `CC(O)(Cn1cncc1C#N)c1ccc(Oc2ccc(Br)cc2)cc1Br` (stereo not shown) [I-219], the LogP is 3.73^[a].

Take `CCCC(O)(Cn1cncc1C#N)c1ccc(F)cc1Br` (stereo not shown) [I-408]: the LogP is 2.75^[a].
